ChEMBL document CHEMBL1134713, “Synthesis of a novel series of cytotoxic bisindole alkaloids” (Bioorg Med Chem Lett, 2001)

Key:
L1210 [1] = assay: Cytotoxicity against L1210 cell proliferation, measured using microculture tetrazolium assay (MTA); format: functional, cell-based, Mus musculus
L1210 [2] = assay: Evaluated for the dose-dependent accumulation and percent of cells in G1 phase was determined at a concentration of 5 uM; format: functional, Mus musculus
L1210 [3] = assay: Compound was evaluated for the percent stimulation of cell proliferation at a concentration of 10 uM; format: functional, Mus musculus
L1210 [4] = assay: Evaluated for the dose-dependent accumulation and percent of cells in G1 phase was determined at a concentration of 20 uM; format: functional, Mus musculus
L1210 [5] = assay: Evaluated for the dose-dependent accumulation and percent of cells in G1 phase was determined at a concentration of 10 uM; format: functional, Mus musculus
L1210 [6] = assay: Evaluated for the dose-dependent accumulation and percent of cells in G1 phase was determined at a concentration of 25 uM; format: functional, Mus musculus
L1210 [7] = assay: Evaluated for the dose-dependent accumulation and percent of cells in G1 phase was determined at a concentration of 50 uM; format: functional, Mus musculus

CC[C@]12C=C(C(=O)OC)c3c(CCNc4ccc(F)cc4)c4ccccc4n3[C@H]1N(O)CCC2
IC50 (L1210 [1]; Mus musculus, L1210): 15.4 µM

CC[C@]12C=C(C(=O)OC)c3c(CC4Nc5cc(OC)c(OC)c(OC)c5CC4c4c5n(c6ccccc46)[C@H]4N(O)CCC[C@@]4(CC)C=C5C(=O)OC)c4ccccc4n3[C@H]1N(O)CCC2 (some centres not stated)
IC50 (L1210 [1]; Mus musculus, L1210): 2.4 µM | Cells (L1210 [2]): 61%

CC[C@]12C=C(C(=O)OC)c3c(CC4Nc5cc(Cl)cc(Cl)c5CC4c4c5n(c6ccccc46)[C@H]4N(O)CCC[C@@]4(CC)C=C5C(=O)OC)c4ccccc4n3[C@H]1N(O)CCC2 (some centres not stated)
IC50 (L1210 [1]; Mus musculus, L1210): > 10 µM

CC[C@]12C=C(C(=O)OC)c3c(CC4Nc5cc(Cl)cc(Cl)c5C(Nc5cc(Cl)cc(Cl)c5)C4c4c5n(c6ccccc46)[C@H]4N(O)CCC[C@@]4(CC)C=C5C(=O)OC)c4ccccc4n3[C@H]1N(O)CCC2 (some centres not stated)
IC50 (L1210 [1]; Mus musculus, L1210): > 10 µM | Stimulation (L1210 [3]): 156%

CC[C@]12C=C(C(=O)OC)c3c(CC4Nc5c(F)cccc5C(Nc5ccccc5F)C4c4c5n(c6ccccc46)[C@H]4N(O)CCC[C@@]4(CC)C=C5C(=O)OC)c4ccccc4n3[C@H]1N(O)CCC2 (some centres not stated)
IC50 (L1210 [1]; Mus musculus, L1210): 14.1 µM

CC[C@]12C=C(C(=O)OC)c3c(CC4Nc5ccc(Cl)cc5C(Nc5ccc(Cl)cc5)C4c4c5n(c6ccccc46)[C@H]4N(O)CCC[C@@]4(CC)C=C5C(=O)OC)c4ccccc4n3[C@H]1N(O)CCC2 (some centres not stated)
IC50 (L1210 [1]; Mus musculus, L1210): > 10 µM | Stimulation (L1210 [3]): 126%

CC[C@]12C=C(C(=O)OC)c3c(CC4Nc5ccc(C(F)(F)F)cc5C(Nc5ccc(C(F)(F)F)cc5)C4c4c5n(c6ccccc46)[C@H]4N(O)CCC[C@@]4(CC)C=C5C(=O)OC)c4ccccc4n3[C@H]1N(O)CCC2 (some centres not stated)
IC50 (L1210 [1]; Mus musculus, L1210): > 10 µM | Stimulation (L1210 [3]): 152%

CC[C@]12C=C(C(=O)OC)c3c(CC4Nc5ccc(F)cc5CC4c4c5n(c6ccccc46)[C@H]4N(O)CCC[C@@]4(CC)C=C5C(=O)OC)c4ccccc4n3[C@H]1N(O)CCC2 (some centres not stated)
IC50 (L1210 [1]; Mus musculus, L1210): 1.8 µM | Cells (L1210 [2]): 81%

CC[C@]12C=C(C(=O)OC)c3c(CC4Nc5ccc(OC)cc5C(OC)C4c4c5n(c6ccccc46)[C@H]4N(O)CCC[C@@]4(CC)C=C5C(=O)OC)c4ccccc4n3[C@H]1N(O)CCC2 (some centres not stated)
IC50 (L1210 [1]; Mus musculus, L1210): 1.7 µM | Cells (L1210 [4]): 81%

CC[C@]12C=C(C(=O)OC)c3c(CC4Nc5ccc(Cl)cc5CC4c4c5n(c6ccccc46)[C@H]4N(O)CCC[C@@]4(CC)C=C5C(=O)OC)c4ccccc4n3[C@H]1N(O)CCC2 (some centres not stated)
IC50 (L1210 [1]; Mus musculus, L1210): 3.6 µM | Cells (L1210 [5]): 77%

CC[C@]12C=C(C(=O)OC)c3c(CC4Nc5c(Cl)cccc5C(Nc5ccccc5Cl)C4c4c5n(c6ccccc46)[C@H]4N(O)CCC[C@@]4(CC)C=C5C(=O)OC)c4ccccc4n3[C@H]1N(O)CCC2 (some centres not stated)
IC50 (L1210 [1]; Mus musculus, L1210): > 10 µM

CCOC(=O)c1ccc(NC2c3cc(C(=O)OCC)ccc3NC(Cc3c4n(c5ccccc35)[C@H]3N(O)CCC[C@@]3(CC)C=C4C(=O)OC)C2c2c3n(c4ccccc24)[C@H]2N(O)CCC[C@@]2(CC)C=C3C(=O)OC)cc1 (some centres not stated)
IC50 (L1210 [1]; Mus musculus, L1210): > 10 µM | Stimulation (L1210 [3]): 118%

CC[C@]12C=C(C(=O)OC)c3c(CC4Nc5ccc(O)cc5C(OC)C4c4c5n(c6ccccc46)[C@H]4N(O)CCC[C@@]4(CC)C=C5C(=O)OC)c4ccccc4n3[C@H]1N(O)CCC2 (some centres not stated)
IC50 (L1210 [1]; Mus musculus, L1210): 0.9 µM

CC[C@]12C=C(C(=O)OC)c3c(CC4Nc5ccc(OC)cc5CC4c4c5n(c6ccccc46)[C@H]4N(O)CCC[C@@]4(CC)C=C5C(=O)OC)c4ccccc4n3[C@H]1N(O)CCC2 (some centres not stated)
IC50 (L1210 [1]; Mus musculus, L1210): 2.2 µM | Cells (L1210 [4]): 69%

CC[C@]12C=C(C(=O)OC)c3c(CC4Nc5ccccc5CC4c4c5n(c6ccccc46)[C@H]4N(O)CCC[C@@]4(CC)C=C5C(=O)OC)c4ccccc4n3[C@H]1N(O)CCC2 (stereo in doubt; 1)
IC50 (L1210 [1]; l1210): 2.7 µM | Cells (L1210 [6]): 80%

CC[C@]12C=C(C(=O)OC)c3c(CC4Nc5ccccc5CC4c4c5n(c6ccccc46)[C@H]4N(O)CCC[C@@]4(CC)C=C5C(=O)OC)c4ccccc4n3[C@H]1N(O)CCC2 (stereo in doubt; 6)
IC50 (L1210 [1]; l1210): 71 µM | Cells (L1210 [7]): 4.5%
